By IC50 is commonly meant the midpoint of a concentration-inhibition curve. Read a low IC50 as greater potency in that assay. One may read the LC50 as the concentration that kills 50% of the test population. A low value points to a more lethal substance.

≈ marks a conversion by molar mass, not a printed value.

The results in this text go back to ChEMBL document CHEMBL1150923, “A new cacospongionolide inhibitor of human secretory phospholipase A2 from the Tyrrhenian sponge Fasciospongia cavernosa and absolute configuration of cacospongionolides” (J Nat Prod, 1998).

Series [1] in a line: Inhibition of pig pancreatic group1 sPLA2 at 10 uM by liquid scintillation counting. Further details: species or system Sus scrofa; call rule not given here.
The target of series [2] is T1, Phospholipase A2, membrane associated (Homo sapiens, UniProt P14555).
T1 sequence (P14555 whole entry): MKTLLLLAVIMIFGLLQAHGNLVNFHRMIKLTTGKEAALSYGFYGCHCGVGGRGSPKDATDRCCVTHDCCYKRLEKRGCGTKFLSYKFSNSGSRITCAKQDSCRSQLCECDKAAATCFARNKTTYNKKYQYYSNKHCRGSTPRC
The experiment in a line: Inhibition of human synovial group2 sPLA2 by liquid scintillation counting.

Series [3] has as its target T2, Phospholipase A2, membrane associated (Rattus norvegicus, UniProt P14423).
T2 sequence (P14423 whole entry): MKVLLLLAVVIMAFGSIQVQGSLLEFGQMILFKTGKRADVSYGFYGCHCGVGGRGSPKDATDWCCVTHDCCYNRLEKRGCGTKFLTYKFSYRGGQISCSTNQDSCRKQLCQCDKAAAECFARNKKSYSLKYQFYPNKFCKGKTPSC
Description: Inhibition of rat air pouch group2 sPLA2 by liquid scintillation counting.

Series [4] deals with T3, Phospholipase A2 (Apis mellifera, UniProt P00630).
T3 sequence (P00630 whole entry): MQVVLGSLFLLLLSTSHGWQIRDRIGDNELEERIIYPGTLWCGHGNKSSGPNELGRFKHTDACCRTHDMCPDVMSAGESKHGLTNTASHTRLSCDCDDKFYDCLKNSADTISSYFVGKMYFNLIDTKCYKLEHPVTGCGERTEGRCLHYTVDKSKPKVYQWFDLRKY
The experiment in a line: Inhibition of bee venom group3 sPLA2 by liquid scintillation counting.

Series [5] in a line: Cytotoxicity against human neutrophils by MTT assay. The class given is cell-based. As to conditions: neutrophil.
Series [6] is described as follows: Toxicity in Artemia salina. The class given is organism-based. As to conditions: in vivo.
Series [7] can be described thus: Toxicity in Gambusia affinis. The class given is organism-based. As to conditions: in vivo.
A short description of series [8]: Inhibition of pig pancreatic group1 sPLA2 by liquid scintillation counting. Further details: species or system Sus scrofa.

In the case of `CC1=CCC[C@@H]2[C@@](C)(CCC3=CC[C@H](C4=CC(=O)O[C@H]4O)OC3)[C@@H](C)CC[C@@]12C` [CACOSPONGIONOLIDE E], the IC50 in series [1] turned out to be 5.3 µM; in series [2] it was 1.4 µM; in series [3], 7.8 µM; in series [4] it was 2.8 µM. For the same compound, the Activity entry in series [5] was “Not Active”. Also, the LC50 in series [6] is 1.29 µg/mL (≈ 3.22 µM); in series [7], 1.01 µg/mL (≈ 2.52 µM).
`CC1=C(CC/C(C)=C/CCC2=CC[C@H](C3=CC(=O)O[C@H]3O)O[C@H]2O)C(C)(C)CCC1` [MANOALIDE]: the IC50 in series [1] stood at 32.3 µM; in series [2] it was 3.9 µM. Also, the Activity result in series [5] is on record as “Not Active”.
As to `C=C1CCC[C@H]2[C@](C)(CCC3=CCC(C4=CC(=O)OC4O)OC3)[C@H](C)CC[C@]12C` (stereo partly drawn) [CACOSPONGIONOLIDE B], the IC50 stood at 64.2 µM in series [1], 4 µM in series [8] and 4.3 µM in series [2]. Also, the Activity result in series [5] was “Not Active”.
For `C[C@H]1CC[C@@]23C[C@]2(C)CCC[C@@H]3[C@@]1(C)CCC1=CC[C@H](C2=CC(=O)O[C@H]2O)OC1` [CACOSPONGIONOLIDE], the IC50 in series [1] was determined as 14.4 µM; in series [2] it was 3 µM; in series [4], 2.3 µM. In series [5], the Activity entry is listed as “Not Active”.
